Measurements as given in ChEMBL document CHEMBL5291721, “A preclinical secondary pharmacology resource illuminates target-adverse drug reaction associations of marketed drugs” (Nat Commun, 2023).

Experiments:
Thromboxane A2 receptor [1] = target: T1, Thromboxane A2 receptor (Homo sapiens, UniProt P21731); type: functional, cell-based
T1 sequence (P21731 whole entry): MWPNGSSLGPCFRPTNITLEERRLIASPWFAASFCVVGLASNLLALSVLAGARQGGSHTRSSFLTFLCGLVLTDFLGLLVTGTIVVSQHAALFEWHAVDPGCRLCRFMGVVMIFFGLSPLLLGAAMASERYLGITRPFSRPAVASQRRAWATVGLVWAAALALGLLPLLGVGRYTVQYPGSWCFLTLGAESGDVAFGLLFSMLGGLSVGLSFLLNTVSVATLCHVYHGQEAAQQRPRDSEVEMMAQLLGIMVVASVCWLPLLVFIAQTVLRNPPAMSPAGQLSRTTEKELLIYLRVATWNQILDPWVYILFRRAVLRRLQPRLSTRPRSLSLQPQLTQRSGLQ

Prothrombin = Prothrombin (Homo sapiens, UniProt P00734); type: functional
Thromboxane A2 receptor [2] = target: T1, Thromboxane A2 receptor; type: functional, cell-based; remark: listed apart in the source
[3] = target: T2, Muscarinic acetylcholine receptor M2 (Homo sapiens, UniProt P08172)
T2 sequence (P08172 whole entry): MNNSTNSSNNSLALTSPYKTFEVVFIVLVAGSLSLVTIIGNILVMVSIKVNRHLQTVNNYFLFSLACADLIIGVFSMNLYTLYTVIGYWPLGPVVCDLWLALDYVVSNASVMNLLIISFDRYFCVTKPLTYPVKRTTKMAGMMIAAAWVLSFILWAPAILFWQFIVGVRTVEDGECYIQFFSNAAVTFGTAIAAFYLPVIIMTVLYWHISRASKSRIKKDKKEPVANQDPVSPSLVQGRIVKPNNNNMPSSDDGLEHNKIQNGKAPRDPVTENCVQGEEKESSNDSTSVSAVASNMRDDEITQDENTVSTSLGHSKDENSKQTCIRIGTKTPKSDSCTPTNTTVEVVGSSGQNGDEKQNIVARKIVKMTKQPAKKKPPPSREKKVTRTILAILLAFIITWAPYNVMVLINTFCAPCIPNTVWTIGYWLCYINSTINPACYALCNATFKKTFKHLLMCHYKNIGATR

[4] = target: T3, Alpha-1A adrenergic receptor (Homo sapiens, UniProt P35348); type: functional, cell-based
T3 sequence (P35348 whole entry): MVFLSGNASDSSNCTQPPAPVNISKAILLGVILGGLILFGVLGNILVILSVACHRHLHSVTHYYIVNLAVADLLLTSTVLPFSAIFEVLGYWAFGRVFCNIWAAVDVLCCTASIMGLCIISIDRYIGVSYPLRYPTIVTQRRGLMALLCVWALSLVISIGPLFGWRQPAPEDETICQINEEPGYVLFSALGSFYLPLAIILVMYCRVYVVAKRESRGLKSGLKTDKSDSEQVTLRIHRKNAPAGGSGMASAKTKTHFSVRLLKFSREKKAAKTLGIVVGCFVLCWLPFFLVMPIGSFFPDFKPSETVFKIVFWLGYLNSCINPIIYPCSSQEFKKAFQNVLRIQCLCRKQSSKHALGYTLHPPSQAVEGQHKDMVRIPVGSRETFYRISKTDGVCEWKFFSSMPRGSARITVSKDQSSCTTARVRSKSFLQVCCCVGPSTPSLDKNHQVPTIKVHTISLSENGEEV

[5] = target: T3, Alpha-1A adrenergic receptor; type: functional, cell-based; remark: listed apart in the source
[6] = target: T3, Alpha-1A adrenergic receptor; type: functional, cell-based; remark: listed apart in the source
Histamine H3 receptor = Histamine H3 receptor (Homo sapiens, UniProt Q9Y5N1)
Histamine H3 receptor, sequence (Q9Y5N1 whole entry): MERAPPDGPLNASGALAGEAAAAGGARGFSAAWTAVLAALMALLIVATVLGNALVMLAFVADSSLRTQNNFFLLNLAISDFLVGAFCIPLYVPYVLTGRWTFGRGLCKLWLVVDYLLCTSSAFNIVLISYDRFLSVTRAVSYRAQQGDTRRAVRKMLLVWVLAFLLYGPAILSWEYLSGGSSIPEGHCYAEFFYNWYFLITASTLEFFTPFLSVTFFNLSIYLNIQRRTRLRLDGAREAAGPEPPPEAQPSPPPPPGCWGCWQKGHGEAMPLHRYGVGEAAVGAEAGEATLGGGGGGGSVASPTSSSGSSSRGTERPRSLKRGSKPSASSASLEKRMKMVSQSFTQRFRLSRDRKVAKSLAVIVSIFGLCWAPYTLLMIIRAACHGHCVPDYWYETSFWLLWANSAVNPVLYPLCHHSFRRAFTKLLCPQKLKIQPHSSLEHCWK

Thromboxane A2 receptor [7] = target: T1, Thromboxane A2 receptor
[8] = target: T4, Gastrin/cholecystokinin type B receptor (Homo sapiens, UniProt P32239)
T4 sequence (P32239 whole entry): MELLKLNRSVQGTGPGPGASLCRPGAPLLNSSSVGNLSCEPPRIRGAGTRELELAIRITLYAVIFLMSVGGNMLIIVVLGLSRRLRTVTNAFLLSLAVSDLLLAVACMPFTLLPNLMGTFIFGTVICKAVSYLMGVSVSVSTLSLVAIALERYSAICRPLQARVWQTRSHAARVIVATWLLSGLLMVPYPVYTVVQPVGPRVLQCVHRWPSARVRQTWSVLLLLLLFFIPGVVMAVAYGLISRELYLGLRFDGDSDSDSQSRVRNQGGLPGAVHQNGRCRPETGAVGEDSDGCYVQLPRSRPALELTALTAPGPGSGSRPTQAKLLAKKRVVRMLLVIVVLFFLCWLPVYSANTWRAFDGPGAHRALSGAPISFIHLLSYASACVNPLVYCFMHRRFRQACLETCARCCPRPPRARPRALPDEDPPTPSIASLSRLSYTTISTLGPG

[9] = target: Prostaglandin G/H synthase 1 (Homo sapiens, UniProt P23219); type: functional
Prostaglandin G/H synthase 1, sequence (P23219 whole entry): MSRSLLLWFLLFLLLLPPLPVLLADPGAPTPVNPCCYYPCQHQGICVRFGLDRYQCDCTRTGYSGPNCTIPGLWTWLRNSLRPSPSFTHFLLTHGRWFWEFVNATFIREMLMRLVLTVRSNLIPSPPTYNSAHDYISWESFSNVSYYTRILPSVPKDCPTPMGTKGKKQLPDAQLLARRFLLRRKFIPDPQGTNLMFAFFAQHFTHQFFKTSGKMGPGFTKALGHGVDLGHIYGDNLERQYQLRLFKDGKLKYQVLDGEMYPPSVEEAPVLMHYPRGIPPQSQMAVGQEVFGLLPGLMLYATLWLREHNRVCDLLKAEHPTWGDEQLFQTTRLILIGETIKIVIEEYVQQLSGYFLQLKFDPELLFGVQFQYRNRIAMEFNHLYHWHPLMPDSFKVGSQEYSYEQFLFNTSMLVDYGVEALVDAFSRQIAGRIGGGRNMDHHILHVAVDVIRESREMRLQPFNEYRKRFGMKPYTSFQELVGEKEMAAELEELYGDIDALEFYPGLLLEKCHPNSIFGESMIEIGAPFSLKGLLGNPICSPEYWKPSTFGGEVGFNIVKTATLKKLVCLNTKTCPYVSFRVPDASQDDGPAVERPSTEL

[10] = target: Muscarinic acetylcholine receptor M3 (Homo sapiens, UniProt P20309)
Muscarinic acetylcholine receptor M3, sequence (P20309 whole entry): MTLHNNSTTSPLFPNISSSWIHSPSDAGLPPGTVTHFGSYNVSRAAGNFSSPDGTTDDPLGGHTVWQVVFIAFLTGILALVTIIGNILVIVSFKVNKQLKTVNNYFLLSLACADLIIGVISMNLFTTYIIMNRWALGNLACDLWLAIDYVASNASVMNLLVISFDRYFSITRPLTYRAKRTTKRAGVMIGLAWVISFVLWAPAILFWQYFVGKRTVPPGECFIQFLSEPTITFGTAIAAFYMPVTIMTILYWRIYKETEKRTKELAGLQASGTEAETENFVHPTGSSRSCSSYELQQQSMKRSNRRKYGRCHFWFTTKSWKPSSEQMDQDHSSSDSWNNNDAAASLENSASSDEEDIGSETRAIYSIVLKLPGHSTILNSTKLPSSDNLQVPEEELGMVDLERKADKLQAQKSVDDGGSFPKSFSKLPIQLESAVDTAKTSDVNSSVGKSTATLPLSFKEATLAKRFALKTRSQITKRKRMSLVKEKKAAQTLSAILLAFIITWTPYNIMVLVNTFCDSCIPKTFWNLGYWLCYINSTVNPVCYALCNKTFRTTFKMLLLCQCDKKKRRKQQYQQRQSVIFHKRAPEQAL

[11] = target: Voltage-dependent L-type calcium channel subunit alpha-1C (Rattus norvegicus, UniProt P22002); type: functional
Voltage-dependent L-type calcium channel subunit alpha-1C, sequence (P22002 whole entry): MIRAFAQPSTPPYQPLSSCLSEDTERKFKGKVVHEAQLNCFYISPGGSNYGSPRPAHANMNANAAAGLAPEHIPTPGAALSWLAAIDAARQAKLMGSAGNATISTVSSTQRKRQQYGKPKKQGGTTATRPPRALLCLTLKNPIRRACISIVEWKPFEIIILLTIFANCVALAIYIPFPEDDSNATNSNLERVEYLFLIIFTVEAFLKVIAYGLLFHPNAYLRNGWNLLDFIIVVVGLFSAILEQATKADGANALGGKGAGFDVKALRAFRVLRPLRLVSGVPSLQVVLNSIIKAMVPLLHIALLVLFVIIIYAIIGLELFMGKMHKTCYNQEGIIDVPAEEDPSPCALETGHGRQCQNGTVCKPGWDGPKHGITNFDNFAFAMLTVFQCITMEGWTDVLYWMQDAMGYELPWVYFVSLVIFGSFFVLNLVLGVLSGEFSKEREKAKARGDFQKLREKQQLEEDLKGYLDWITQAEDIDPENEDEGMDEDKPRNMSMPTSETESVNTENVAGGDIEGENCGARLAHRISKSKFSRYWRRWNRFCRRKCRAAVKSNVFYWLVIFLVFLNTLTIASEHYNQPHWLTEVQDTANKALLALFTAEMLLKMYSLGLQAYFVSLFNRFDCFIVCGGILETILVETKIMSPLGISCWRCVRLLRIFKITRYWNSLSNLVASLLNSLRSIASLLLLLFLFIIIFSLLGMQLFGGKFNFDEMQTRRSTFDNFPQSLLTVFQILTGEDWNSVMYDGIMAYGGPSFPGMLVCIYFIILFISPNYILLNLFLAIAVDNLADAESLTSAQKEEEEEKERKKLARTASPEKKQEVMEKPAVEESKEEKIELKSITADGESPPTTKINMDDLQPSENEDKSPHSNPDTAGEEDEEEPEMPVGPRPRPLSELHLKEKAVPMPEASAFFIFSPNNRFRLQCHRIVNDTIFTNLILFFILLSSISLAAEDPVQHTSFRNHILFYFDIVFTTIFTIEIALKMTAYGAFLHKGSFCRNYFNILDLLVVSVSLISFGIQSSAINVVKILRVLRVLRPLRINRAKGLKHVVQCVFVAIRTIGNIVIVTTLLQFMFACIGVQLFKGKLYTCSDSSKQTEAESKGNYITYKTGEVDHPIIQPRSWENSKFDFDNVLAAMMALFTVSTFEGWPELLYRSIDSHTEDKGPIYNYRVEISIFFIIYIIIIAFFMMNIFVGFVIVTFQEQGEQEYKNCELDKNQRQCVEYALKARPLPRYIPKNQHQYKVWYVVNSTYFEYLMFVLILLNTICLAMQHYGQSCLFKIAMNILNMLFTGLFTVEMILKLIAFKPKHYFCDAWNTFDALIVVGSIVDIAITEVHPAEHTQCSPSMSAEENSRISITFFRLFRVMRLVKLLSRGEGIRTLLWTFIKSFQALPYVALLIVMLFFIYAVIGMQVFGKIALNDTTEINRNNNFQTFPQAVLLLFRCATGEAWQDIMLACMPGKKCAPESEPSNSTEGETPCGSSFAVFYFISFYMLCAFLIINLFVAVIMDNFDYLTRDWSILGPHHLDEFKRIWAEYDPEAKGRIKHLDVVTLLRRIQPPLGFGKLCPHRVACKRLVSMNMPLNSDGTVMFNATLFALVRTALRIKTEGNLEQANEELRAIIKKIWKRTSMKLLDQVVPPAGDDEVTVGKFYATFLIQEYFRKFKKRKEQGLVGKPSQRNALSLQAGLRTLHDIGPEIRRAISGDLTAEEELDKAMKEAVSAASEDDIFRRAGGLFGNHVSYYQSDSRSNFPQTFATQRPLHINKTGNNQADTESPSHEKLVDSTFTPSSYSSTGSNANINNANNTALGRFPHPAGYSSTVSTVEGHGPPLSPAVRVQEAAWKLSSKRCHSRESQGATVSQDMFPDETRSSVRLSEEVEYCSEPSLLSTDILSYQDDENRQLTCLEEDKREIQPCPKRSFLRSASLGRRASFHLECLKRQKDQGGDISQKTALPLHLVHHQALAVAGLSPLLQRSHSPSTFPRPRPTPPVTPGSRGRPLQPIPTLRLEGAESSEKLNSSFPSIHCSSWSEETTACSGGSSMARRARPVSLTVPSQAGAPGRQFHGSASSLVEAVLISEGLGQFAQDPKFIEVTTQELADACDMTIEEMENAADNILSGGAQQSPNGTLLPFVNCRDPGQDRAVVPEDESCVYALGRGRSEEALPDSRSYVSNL

Histamine H2 receptor = Histamine H2 receptor (Homo sapiens, UniProt P25021); type: functional, cell-based
Histamine H2 receptor, sequence (P25021 whole entry): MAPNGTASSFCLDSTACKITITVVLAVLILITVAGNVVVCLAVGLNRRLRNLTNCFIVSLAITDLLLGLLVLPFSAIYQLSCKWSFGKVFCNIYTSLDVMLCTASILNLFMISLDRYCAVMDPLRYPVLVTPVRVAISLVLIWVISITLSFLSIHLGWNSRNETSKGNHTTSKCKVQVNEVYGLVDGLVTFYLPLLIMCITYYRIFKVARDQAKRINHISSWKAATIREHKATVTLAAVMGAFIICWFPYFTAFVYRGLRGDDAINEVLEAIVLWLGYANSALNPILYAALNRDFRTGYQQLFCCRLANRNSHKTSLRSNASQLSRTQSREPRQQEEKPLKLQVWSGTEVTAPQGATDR
Also: assay procedure not described here.

| SMILES | AC50 (Thromboxane A2 receptor [1]) [µM] | AC50 (Prothrombin) [µM] | AC50 (Thromboxane A2 receptor [2]) [µM] | AC50 [5] [µM] | AC50 [6] [µM] | AC50 (Histamine H3 receptor) [µM] | AC50 (Thromboxane A2 receptor [7]) [µM] | AC50 [10] [µM] | AC50 [11] [µM] | AC50 (Histamine H2 receptor) [µM] | further results |
| --- | --- | --- | --- | --- | --- | --- | --- | --- | --- | --- | --- |
| CC(C)(S)[C@@H](N)C(=O)O [PENICILLAMINE] | > 30 | > 30 | > 30 | – | – | – | – | – | – | – | AC50 [3]: > 30 µM; AC50 [4]: > 30 µM |
| C1CCC(C(CC2CCCCN2)C2CCCCC2)CC1 (stereo not drawn) [PERHEXILINE] | – | – | – | > 10 | > 10 | > 30 | – | – | – | – | – |
| C[N+]1(C)CCC(OC(=O)C(O)(c2ccccc2)C2CCCC2)C1 (stereo not drawn) [GLYCOPYRRONIUM BROMIDE] | > 30 | > 30 | > 30 | – | – | – | > 30 | – | – | – | AC50 [8]: > 30 µM |
| C[N+](C)(C)CCO [CHOLINE] | > 30 | > 30 | > 30 | – | – | – | – | – | – | – | AC50 [3]: > 30 µM; AC50 [9]: > 30 µM; AC50 [4]: > 30 µM |
| CNC1Cc2ccccc2N(C)c2ccccc21 (stereo not drawn) [METAPRAMINE] | – | – | – | 3.4 | > 30 | > 30 | – | > 30 | – | – | – |
| CN1C(=O)CCS(=O)(=O)C1c1ccc(Cl)cc1 (stereo not drawn) [CHLORMEZANONE] | – | – | – | – | – | – | > 10 | > 30 | > 10 | > 30 | – |
| c1ccc([C@H]2CN3CCSC3=N2)cc1 [LEVAMISOLE] | – | – | – | > 30 | > 30 | > 30 | > 30 | – | > 30 | > 30 | – |
| CN(C)CCC=C1c2ccccc2C(C)(C)c2ccccc21 | – | – | – | 0.63 | > 30 | 25 | – | 0.38 | – | – | – |
| C[C@H]1CNCCc2ccc(Cl)cc21 [LORCASERIN] | – | – | – | > 30 | > 30 | > 30 | – | > 30 | – | – | – |
| COc1cc(NC(C)CCCN)c2ncccc2c1 (stereo not drawn) [PRIMAQUINE] | > 30 | > 30 | > 30 | – | – | – | > 30 | – | – | – | AC50 [8]: > 30 µM; AC50 [9]: 3.95 µM |
| CNC(=O)c1ccccc1Sc1ccc2c(/C=C/c3ccccn3)n[nH]c2c1 [AXITINIB] | – | – | – | > 30 | > 30 | > 30 | 8.66 | > 30 | – | – | – |
| N[C@@H]1[C@H]2CN(c3nc4c(cc3F)c(=O)c(C(=O)O)cn4-c3ccc(F)cc3F)C[C@@H]12 [TROVAFLOXACIN] | – | – | – | > 30 | > 30 | > 30 | – | – | – | – | – |
| CC(=O)Nc1ccc(O)cc1 [ACETAMINOPHEN] | > 30 | > 30 | > 30 | > 30 | > 30 | > 30 | – | – | – | – | AC50 [3]: > 30 µM; AC50 [9]: > 30 µM; AC50 [4]: > 30 µM |
| O=P1(NCCCl)OCCCN1CCCl (stereo not drawn) [IFOSFAMIDE] | – | – | – | – | – | > 30 | > 30 | – | > 30 | > 30 | AC50 [8]: > 30 µM |
| CCCSc1ccc2nc(NC(=O)OC)[nH]c2c1 [ALBENDAZOLE] | – | – | – | – | – | – | > 30 | – | > 10 | > 10 | – |
| C[C@@H](O)[C@H]1C(=O)N2C(C(=O)O)=C(S[C@@H]3CN[C@H](C(=O)N(C)C)C3)[C@H](C)[C@H]12 [MEROPENEM] | – | – | – | > 300 | > 300 | > 300 | > 10 | – | > 10 | > 10 | – |
